Data: ChEMBL document CHEMBL3272002, “Central nervous system depressants. 13. s-Triazolo-1,5-benzodiazepin-5-ones” (1976)
Activity calls are given as the source filed them. The rule behind the calls is not given here.

How the values were obtained:
[1] = test system: Mus musculus; test: Anticonvulsant activity in ip dosed CF-1 mouse assessed as reduction of pentylenetetrazole-induced response; format: functional; conditions: CF-1, ip
[2] = test system: Mus musculus; test: Inhibition of nicotine-induced response in ip dosed CF-1 mouse; format: functional; conditions: CF-1, ip
[3] = test system: Mus musculus; test: Inhibition of nicotine-induced response in CF-1 mouse at 100 mg/kg, ip; format: functional, organism-based; design: dose 100 mg/kg
[4] = test system: Mus musculus; test: Reduction in hypoxic stress in CF-1 mouse at 100 mg/kg, ip; format: functional, organism-based; design: dose 100 mg/kg
[5] = test system: Mus musculus; test: Anticonvulsant activity in CF-1 mouse assessed as reduction of pentylenetetrazole-induced response at 100 mg/kg, ip; format: functional, organism-based; design: dose 100 mg/kg
[6] = test system: Mus musculus; test: Anticonvulsant activity in CF-1 mouse assessed as reduction of strychnine-induced response at 100 mg/kg, ip; format: functional, organism-based; design: dose 100 mg/kg
[7] = test system: Mus musculus; test: Anticonvulsant activity in ip dosed CF-1 mouse assessed as reduction of strychnine-induced response; format: functional; conditions: CF-1, ip
[8] = test system: Mus musculus; test: Reduction in hypoxic stress in ip dosed CF-1 mouse; format: functional; conditions: CF-1, ip

Compound | ED50 [1] | ED50 [2] | inhibition [3] | Activity [4] | Activity [5] | Activity [6] | ED50 [7] | ED50 [8]
CN(C)Cc1nnc2n1-c1ccc(Cl)cc1N(c1ccccc1)C(=O)C2 | 25 mg/kg | 89 mg/kg | – | – | – | – | – | –
O=C1Cc2nnc(CCl)n2-c2ccc(Cl)cc2N1c1ccccc1 | – | – | inactive | inactive | inactive | inactive | – | –
CNC1=Nc2ccc(Cl)cc2C(c2ccccc2)=[N+]([O-])C1 [CHLORDIAZEPOXIDE] | 2.6 mg/kg | 1 mg/kg | – | – | – | – | 13 mg/kg | 10.5 mg/kg
Cc1nnc2n1-c1ccc(Cl)cc1N(c1ccccc1)C(=O)C2 | 7 mg/kg | 5 mg/kg | – | – | – | – | 28 mg/kg | 60 mg/kg
